Measured values: ChEMBL document CHEMBL5727515, “5-[3-[piperzin-1-yl]-3-oxo-propyl]-imidazolidine-2,4-dione derivatives as ADAMTS 4 and 5 inhibitors for treating E.G. osteoarthritis” (2020)

How the values were obtained:
[1] = biological target: Disintegrin and metalloproteinase domain-containing protein 17 (Homo sapiens, UniProt P78536); test: hTACE assay: The basis for the assay is the cleavage of the substrate 5FAM-LAQAVRSSSRK-5TAMRA (SEQ ID No 3) (Anaspec, custom 34891) by human TACE (R&D SYSTEMS INC., Cat#930-ADB).For the dose response (10 point), 4 μL of a dilution series of compound (2 mM highest concentration, 1/5 dilution in DMSO further diluted 1 in 10 in water, corresponding to a final highest concentration of 20 μM), is …
Disintegrin and metalloproteinase domain-containing protein 17, sequence (P78536 whole entry, the tested form may be a part): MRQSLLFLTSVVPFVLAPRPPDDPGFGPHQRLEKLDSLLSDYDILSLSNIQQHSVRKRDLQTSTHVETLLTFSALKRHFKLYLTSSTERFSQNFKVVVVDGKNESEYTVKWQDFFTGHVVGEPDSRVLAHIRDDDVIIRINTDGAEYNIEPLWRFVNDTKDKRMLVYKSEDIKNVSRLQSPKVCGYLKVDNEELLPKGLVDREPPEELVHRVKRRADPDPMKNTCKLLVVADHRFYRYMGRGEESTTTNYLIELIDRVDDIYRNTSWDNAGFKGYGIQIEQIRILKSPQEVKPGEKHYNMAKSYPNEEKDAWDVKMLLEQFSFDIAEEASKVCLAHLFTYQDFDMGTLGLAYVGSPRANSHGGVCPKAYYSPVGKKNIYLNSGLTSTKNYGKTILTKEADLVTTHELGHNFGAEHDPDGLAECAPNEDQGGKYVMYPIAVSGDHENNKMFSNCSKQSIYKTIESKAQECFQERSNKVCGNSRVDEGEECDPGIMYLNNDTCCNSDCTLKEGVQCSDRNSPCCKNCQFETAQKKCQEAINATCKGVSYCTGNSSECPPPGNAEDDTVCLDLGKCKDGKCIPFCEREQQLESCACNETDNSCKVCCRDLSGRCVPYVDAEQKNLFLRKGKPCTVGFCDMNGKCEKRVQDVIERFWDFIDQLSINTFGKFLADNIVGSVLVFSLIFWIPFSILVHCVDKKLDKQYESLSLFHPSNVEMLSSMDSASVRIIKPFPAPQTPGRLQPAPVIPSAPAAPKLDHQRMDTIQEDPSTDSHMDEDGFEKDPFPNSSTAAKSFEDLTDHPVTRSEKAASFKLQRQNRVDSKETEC

[2] = biological target: Collagenase 3 (Homo sapiens, UniProt P45452); test: Human MMP13 is preactivated by incubated the enzyme in the same buffer complemented with 1 mM freshly prepared p-Aminophenylmercuric acetate (AMPA) for 1 h at 37° C.The reaction is initiated by adding to the assay plate 390 MMP FRET Substrate I (10 μL, 2.5 μM) in the same buffer.Finally, the fluorescence is read on the Envision (Perkin Elmer) after an incubation of 45 min at room temperature (Excitation 485 nm, Emission 530).
[3] = biological target: T1, A disintegrin and metalloproteinase with thrombospondin motifs 5 (Homo sapiens, UniProt Q9UNA0); test: hADAMTS-5 assay: The basis for the assay is the cleavage of the substrate TBIS-1 (5 FAM-TEGEARGSVILLK (5TAMRA)K-NH2) (SEQ ID NO: 2) by human ADAMTS-5.For the dose response (10 point), 4 μL of a dilution series of compound (2 mM highest concentration, 1/5 dilution in DMSO further diluted 1 in 10 in water, corresponding to a final highest concentration of 20 μM), is transferred to 384 well Fluotrac …
T1 sequence (Q9UNA0 whole entry): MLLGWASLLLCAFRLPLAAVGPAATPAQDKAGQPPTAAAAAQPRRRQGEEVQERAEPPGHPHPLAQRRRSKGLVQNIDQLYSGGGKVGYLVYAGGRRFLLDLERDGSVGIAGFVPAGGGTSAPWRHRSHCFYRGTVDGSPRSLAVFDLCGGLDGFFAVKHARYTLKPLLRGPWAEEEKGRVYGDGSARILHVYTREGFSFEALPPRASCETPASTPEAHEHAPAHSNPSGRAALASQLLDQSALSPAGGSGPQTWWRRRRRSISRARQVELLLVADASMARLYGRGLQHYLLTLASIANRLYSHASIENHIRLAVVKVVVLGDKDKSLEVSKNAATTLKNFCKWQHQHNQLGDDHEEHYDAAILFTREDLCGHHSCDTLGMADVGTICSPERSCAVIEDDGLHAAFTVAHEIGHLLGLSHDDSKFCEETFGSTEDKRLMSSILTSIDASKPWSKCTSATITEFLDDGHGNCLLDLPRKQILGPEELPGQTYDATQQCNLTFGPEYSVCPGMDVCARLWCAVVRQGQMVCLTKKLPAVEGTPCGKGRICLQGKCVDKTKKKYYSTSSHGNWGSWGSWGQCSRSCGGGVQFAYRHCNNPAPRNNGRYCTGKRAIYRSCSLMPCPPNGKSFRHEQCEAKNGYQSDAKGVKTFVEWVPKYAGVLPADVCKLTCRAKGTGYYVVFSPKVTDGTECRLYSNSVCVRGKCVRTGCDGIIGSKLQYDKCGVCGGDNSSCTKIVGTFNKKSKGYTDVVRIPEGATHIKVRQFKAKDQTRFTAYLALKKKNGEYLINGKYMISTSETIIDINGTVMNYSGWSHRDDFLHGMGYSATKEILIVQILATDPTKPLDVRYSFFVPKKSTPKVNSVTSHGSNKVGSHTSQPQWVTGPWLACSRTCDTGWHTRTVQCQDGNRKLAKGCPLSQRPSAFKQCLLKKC

[4] = biological target: Matrix metalloproteinase-14 (Homo sapiens, UniProt P50281); test: hMMP14 assay: The basis for the assay is the cleavage of the substrate 390 MMP FRET Substrate I (Anaspec Cat# AS-27076) by human MMP14 (Biomol, Cat#SE-259).For the dose response (10 point), 4 μL of a dilution series of compound 2 mM highest concentration, 1/5 dilution in DMSO further diluted 1 in 10 in water, corresponding to a final highest concentration of 20 μM), is transferred to 384 well …

Row | IC50 [1] [nM] | IC50 [2] [nM] | IC50 [3] [nM] | IC50 [4] [nM] | SMILES
1 | > 100 | > 100 | > 100 |  | COc1cc(C2CCN(C(=O)CCC3(C)NC(=O)NC3=O)CC2)c(C)cc1Cl (stereo not drawn)
2 |  | > 100 |  |  | COc1cc(C2CCN(C(=O)CC[C@@]3(C)NC(=O)NC3=O)CC2)cc(Cl)c1Cl
3 |  | > 100 | > 100 |  | COc1c(Cl)cc(Cl)cc1C1CCN(C(=O)CC[C@@]2(C)NC(=O)NC2=O)CC1
4 |  | > 100 | > 100 | > 100 | COc1cc(C2CCN(C(=O)CC[C@H]3NC(=O)NC3=O)CC2)cc(OC)c1F
5 | > 100 | > 100 | > 100 |  | COc1c(Cl)cc(Cl)cc1C1CCN(C(=O)CC[C@H]2NC(=O)NC2=O)CC1
6 |  | > 100 |  |  | COc1cc(C2CCN(C(=O)CC[C@H]3NC(=O)NC3=O)CC2)cc(Cl)c1Cl
